Measured values published in US5747482A, “Methods and compositions to inhibit keratinocyte proliferation” (priority 1996, dated 1998).
Like-named read-outs stand apart in the source and are kept apart here.

Legend:
[1] = oral; cited from earlier work
keratinocyte cells [2] = type: cell-based, human; settings: gallium nitrate 5×10^-4 M; maltol 15×10^-4 M; 2 days treatment, 1.2 mM Ca^+2; FIG. 7
Method: (§1) Adult human keratinocytes from pooled donor skin were obtained from commercial sources (Cascade Biologics, Portland, Oreg., U.S.A.) and placed in 150 cm^2 bottom area culture flasks using culture medium 154 supplemented with HKGS (about 1%). At 80% confluency, cells were harvested with trypsin and cryopreserved until required.
(§2) Culture was renewed for a further 24 hours. At this time, media were removed and discarded, and the cells lysed with 200 μL/well of the solution provided in the Cell Death Detection Kit ELISA Plus (Boehringer Mannheim Biochemicals, Indianapolis, Ind., U.S.A., catalogue number 1774425). Aliquots of the lysate (20 μL) from each of 2 or 3 wells were assayed for nucleosomal enrichment following the kit instructions.
The evaluation of apoptosis of keratinocytes was conducted to determine the relative affect on apoptosis achieved by gallium maltol, gallium nitrate and maltol. Specifically, keratinocyte cells were seeded in 12 well plates seed using culture medium 154. Cultures were continued for 4 days and the medium was changed to medium 154 with 1.2 mM Ca^+2 either without supplement or with one of the following supplements:
1. gallium maltol at a final concentration of 5×10^-4 M;
2. gallium nitrate at a final concentration of 5×10^-4 M;
3. maltol at a concentration of 15×10^-4 M; and
4. CAM at a concentration of 1×10^-5 M.
Three (3) wells were used in each group. The final amount of medium was 300 μL in each well. Culture was continued for 2 days. Bars represent absorbance at 405 nm minus the absorbance at 492 nm.

Keratinocytes = assay: Comparison of keratinocyte growth inhibition by gallium maltol, gallium nitrate and maltol, Example 3; type: cell-based, human; settings: gallium nitrate 1×10^-4 M; maltol 3×10^-4 M; 9 days, high Ca^+2 medium; FIG. 3
From the text: as §1
At the start of the experiments, the required number of vials of keratinocytes was thawed, and the keratinocytes were placed in culture in 24 well plates at about 2,500 cells/cm^2 using the same culture medium as described above. After 24 hours (to allow attachment), the medium was changed to fresh 154 supplemented with HKGS (about 1%) and gallium maltol. Specifically, the fresh medium was prepared by addition of a sufficient amount of a stock solution to provide for six different compositions having a final gallium concentration of 10^-4 M, 10^-5 M, 10^-6 M, 10^-8 M, 10^-10 M, and 10^-12 M. The stock solution was prepared by adding 22.25 mg of gallium maltol to 50 mL of 154 medium and then passing the solution through a 0.2 μm filter and storing at 4° C.
When control cells were about 40% confluent (generally at 4-5 days in culture, all media were removed by aspiration, keratinocyte growth was assayed by crystal violet staining and conversion to cell numbers as described by Wilkinson, et al.^11. Specifically, cell layers rinsed in PBS, which was also aspirated, and 4 drops of crystal violet solution added to each well. The crystal violet solution was prepared by dissolving crystal violet (Fisher Scientific) in PBS:formaldehyde:ethanol (67:3:30%) to give a 0.5 w/v solution. A blank 24-well plate was treated similarly.
Keratinocytes were cultured in 24-well plates for 9 days in the manner described above in Example 2. […]
The cells were then cultured and subsequently evaluated for inhibition of keratinocyte proliferation in the manner described above.

keratinocyte cells [3] = type: cell-based, human; settings: for induction of apoptosis: 24 hours treatment
From the text: as §1
The induction of apoptosis is a critical feature in the programmed cell death as it relates to disease conditions such as cancer, psoriasis, etc. where the uncontrolled proliferation of "immortal" cells such as keratinocytes is a causative feature of the disease. This example compares the ability of gallium maltol to induce apoptosis as compared to negative control (no gallium maltol), and positive control (CAM--an agent known to strongly induce apoptosis). The ability for gallium maltol to effect apoptosis was also measured by the inhibitory effect of ATA.
Specifically, keratinocyte cells were grown using medium 154 in 24 well plates seed with 2,500 cells/cm^2 as described above. Cultures were continued for 3 or 6 days when the cells had achieved about 20 or 60% confluence respectively. On these 2 occasions, media were aspirated from groups of 3 or 4 wells and replaced with high Ca^+2 medium either without supplement or with one of the following supplements:
1. Gallium maltol at a final concentration of one of the following: (a) 5×10^-4 M, (b) 1×10^-4 M, (c) 5×10^-5 M, (d) 1×10^-5 M, and (e) 1×10^-6 M;
4. As in (3) plus CAM at 1×10^-5 or 1×10^-6 M; and
5. As in (3) plus gallium maltol at 1×10^-4 or 2.5×10^-4 M;
as §2

| SMILES | toxicity when taken orally [1] | effect on apoptosis (keratinocyte cells [2]) | effect on keratinocyte proliferation (Keratinocytes) | other results |
| --- | --- | --- | --- | --- |
| CCc1occc(=O)c1O [ethyl maltol, 3-hydroxy-2-ethyl-4-pyrone] | very low toxicities when taken orally |  |  |  |
| O=[N+]([O-])[O-].O=[N+]([O-])[O-].O=[N+]([O-])[O-].[Ga+3] [gallium nitrate] |  | no significant effect on apoptosis | neither gallium nitrate nor maltol had any effect on keratinocyte proliferation |  |
| CC[C@@]1(O)C(=O)OCc2c1cc1n(c2=O)Cc2cc3ccccc3nc2-1 [CAM, camptothecin, reference compound] |  |  |  | induction of apoptosis (keratinocyte cells [3]; 1×10^-5 M, cultured 3 days prior, FIG. 5): strongly induced apoptosis; induction of apoptosis (keratinocyte cells [3]; 1×10^-6 M, cultured 6 days prior, FIG. 6): strongly induced apoptosis |
| O=C(O)C1=CC(=C(c2ccc(O)c(C(=O)O)c2)c2ccc(O)c(C(=O)O)c2)C=CC1=O [ATA, aurin tricarboxylic acid, reference compound] |  |  |  | reduction of CAM-induced apoptosis (keratinocyte cells [3]; 1×10^-4 M ATA + 1×10^-5 M CAM, cultured 3 days prior, FIG. 5): reduced by half; reduction of CAM-induced apoptosis (keratinocyte cells [3]; 1×10^-4 M ATA + 1×10^-6 M CAM, cultured 6 days prior, FIG. 6): reduced by half |
| Cc1occc(=O)c1O [maltol, 3-hydroxy-2-methyl-4-pyrone] | very low toxicities when taken orally | no significant effect on apoptosis | neither gallium nitrate nor maltol had any effect on keratinocyte proliferation |  |
